Experimental data published in paper PMC6522510 (Nature Communications, 2019).
Where a name gives a salt, the structure may show the parent alone. Read-outs that look alike come from different tables or passages of the source.

Assays:
ML2 = assay: Secondary dose-response HTS, Cell Titer Glo; type: cell-based, human
MV4-11 [1] = assay: Secondary dose-response HTS, Cell Titer Glo; type: cell-based, human
CMK = assay: Secondary dose-response HTS, Cell Titer Glo; type: cell-based, human; conditions: CMK; for average effective concentration, CMK: secondary high-throughput screen
MV4-11 [2] = assay: cells; design: species or system AML cell lines (8); Secondary HTS, 10-point dose-response in triplicate, Cell Titer Glo viability, four-parameter fit EC50; conditions: Homo sapiens, MV4-11, 72 h, read-out: MV4-11
CHRF288-11 = assay: Secondary dose-response HTS, Cell Titer Glo; type: cell-based, human; conditions: secondary high-throughput screen; CHRF288-11
MOLM-13 = assay: Secondary dose-response HTS, Cell Titer Glo; type: cell-based, human; conditions: Homo sapiens; secondary high-throughput screen; MOLM-13; read-out: average effective concentration, MOLM-13
M07e = assay: cells; design: species or system AML cell lines (8); Secondary HTS, 10-point dose-response in triplicate, Cell Titer Glo viability, four-parameter fit EC50; conditions: M-07e, 72 h, read-out: M07e
[3] = secondary high-throughput screen, MV4-11

SMILES | average effective concentration, CMK (CMK) | average effective concentration, MV4-11 (MV4-11 [1]; [3]) | also measured
COc1ccc(C[C@H](NC(=O)[C@H](C)NC(=O)CN2CCOCC2)C(=O)N[C@@H](Cc2ccccc2)C(=O)C2(C)CO2)cc1 (stereo in doubt) [ONX-0914, reference compound] |  |  | EC50 (ML2; secondary HTS, 72 h, average of triplicate, read-out: EC50 ML2): 40 nM; EC50 (MV4-11 [1]; secondary HTS, 72 h, average of triplicate, read-out: EC50 MV4-11): 50 nM
CNC(=O)c1ccccc1Sc1ccc2c(/C=C/c3ccccn3)n[nH]c2c1 [AXITINIB] |  |  | EC50 (MV4-11 [1]; Homo sapiens, secondary high-throughput screen, MV4-11, read-out: average effective concentration, MV4-11): 1100 nM
Cn1cccc1/C=C1\C(=O)NC(=O)c2ccccc21 [BYK 204165] | Inactive |  | 
COc1ccc(-c2nc(N3CCOCC3)c3sc(CN(C)c4ncc(C(=O)NO)cn4)cc3n2)cn1 [CUDC-907] |  |  | EC50 (MV4-11 [2]): 0.21 nM
C[C@@H]1NC(=O)[C@H]2CCCN2C(=O)[C@H](CCCCCC(=O)[C@@H]2CO2)NC(=O)[C@@H](C)NC1=O [HC TOXIN] | Inactive | Inactive | 
CCNC(=O)C[C@@H]1N=C(c2ccc(Cl)cc2)c2cc(OC)ccc2-n2c(C)nnc21 [I-BET-762] | Inactive |  | average effective concentration, CHRF288-11 (CHRF288-11): Inactive
CCN1CCN(CC(=O)Nc2ccc(-c3cccc4c(=O)cc(N5CCOCC5)oc34)c3sc4ccccc4c23)CC1 [KU-0060648] |  | Inactive | 
CO[C@@H]1[C@H](N(C)C(=O)c2ccccc2)C[C@H]2O[C@]1(C)n1c3ccccc3c3c4c(c5c6ccccc6n2c5c31)C(=O)NC4 [MIDOSTAURIN] |  |  | EC50 (ML2; Homo sapiens, secondary high-throughput screen, ML-2, read-out: average effective concentration, ML-2): 17 nM; EC50 (MOLM-13): 65 nM
CO[C@H](C(=O)[C@@H](O)[C@@H](C)O)[C@@H]1Cc2cc3cc(O[C@H]4C[C@@H](O[C@H]5C[C@@H](O)[C@H](O)[C@@H](C)O5)[C@H](O)[C@@H](C)O4)c(C)c(O)c3c(O)c2C(=O)[C@H]1O[C@H]1C[C@@H](O[C@H]2C[C@@H](O[C@H]3C[C@](C)(O)[C@H](O)[C@@H](C)O3)[C@@H](O)[C@@H](C)O2)[C@H](O)[C@@H](C)O1 [MITHRAMYCIN A] |  |  | EC50 (M07e): > 10000 nM
O=C1c2c(O)ccc(O)c2C(=O)c2c(NCCNCCO)ccc(NCCNCCO)c21 [MITOXANTHRONE] |  |  | EC50 (ML2; secondary high-throughput screen, ML-2, read-out: average effective concentration, ML-2): 240 nM
C=CCn1c(=O)c2cnc(Nc3ccc(N4CCN(C)CC4)cc3)nc2n1-c1cccc(C(C)(C)O)n1 [MK-1775] |  |  | EC50 (M07e): > 10000 nM
CC(C)C(=O)SCCCCCCC(=O)Nc1nc(-c2ccccc2)cs1 [NCH 51] | Inactive | Inactive | 
CNC(=O)c1ccccc1Nc1nc(Nc2ccc(N3CCOCC3)cc2OC)ncc1Cl [NVP-TAE226] |  | Inactive | 
COC[C@H](NC(=O)c1cnc(C)s1)C(=O)N[C@@H](COC)C(=O)N[C@@H](Cc1ccccc1)C(=O)[C@@]1(C)CO1 [Oprozomib] |  |  | EC50 (MV4-11 [2]): 8.6 nM; EC50 (M07e): 6.3 nM
Cc1ccc(NC(=O)CCCCCC(=O)Nc2ccccc2N)cc1 [PIMELIC DIPHENYLAMIDE 106] | Inactive | Inactive | 
CS(=O)(=O)N1CCN(Cc2cc3nc(-c4cccc5[nH]ncc45)nc(N4CCOCC4)c3s2)CC1 [Pictilisib, reference compound] |  |  | EC50 (CMK; Homo sapiens, read-out: average effective concentration, CMK): 2300 nM
COc1ccc([C@@]23Oc4cc(OC)cc(OC)c4[C@]2(O)[C@H](O)[C@H](C(=O)N(C)C)[C@H]3c2ccccc2)cc1 [ROCAGLAMIDE A] |  | Inactive | 
Cc1cc(Nc2ccc(NC(=O)c3ccc(Nc4ccnc5ccccc45)cc3)cc2)nc(N)n1 [SGI-1027] | Inactive |  | 
O=C(Nc1ccccc1-c1cn2c(CN3CCNCC3)csc2n1)c1cnc2ccccc2n1 [SRT1720] | Inactive | Inactive | 
CN(C)CCCNc1c2ccccc2nc2c1[nH]c1ccccc12 [SYUIQ-5] | Inactive | Inactive | 
CC/C(=C(\c1ccccc1)c1ccc(OCCN(C)C)cc1)c1ccccc1 [TAMOXIFEN CITRATE] |  |  | EC50 (MV4-11 [2]): > 10000 nM
COc1cc(OC)c(/C=C/S(=O)(=O)Cc2ccc(OC)c(NCC(=O)O)c2)c(OC)c1 [rigosertib] |  |  | EC50 (MV4-11 [2]): 12.4 nM; EC50 (M07e): > 10000 nM
